Results taken from article PMC5841289, “Natural polyphenols as sirtuin 6 modulators” (Scientific Reports, 2018).

Tests used:
[1] = system: Twist1 protein expression in Caco-2 cells; test: Immunoblotting of Twist1 protein expression in Caco-2 cells; assay type: cell-based, human; settings: Caco-2, 24 h, 100 µM
Description: (§1) After the treatment, conditions of the cells were evaluated under a light microscope (Fig. 3A). […] Full-length blots are presented in Supplementary Fig. S4.
(§2) FoxO3α, Twist1 and GLUT1 expression were quantified and normalised with α-tubulin or H3. Data represent the mean ± SEM of three independent experiments,*p < 0.05, **p < 0.01 and ***p < 0.001 between the indicated groups.
(§3) Caco-2 cells (passage 30–40) were cultured in DMEM with 10% FBS, 1% nonessential amino acids, 2 mM L-glutamine, 100 units/ml of penicillin, and 100 µg/ml of streptomycin at +37 °C. Cells were cultured 14 days before the treatments. For the immunoblotting, cells were seeded on 24-well plates (1 × 10^5 cells/well).
(§4) After treatment, medium was discarded and cells were washed twice with ice-cold PBS. RIPA buffer was added to the cells and incubated for 30 min. Cell suspensions were collected and centrifuged (13,000 rpm, 20 min +4 °C). Supernatant containing the proteins were aliquoted and stored at −80 °C. Sample protein concentrations were measured with Bradford Assay (Bio-Rad DC^TM Protein Assay).
(§5) Immunoblotting was performed according to standard protocols from four independent experiments. […] HRP-conjugated secondary antibodies (goat anti-rabbit, goat anti-mouse) were incubated for 1 hour at room temperature and proteins were detected using ELC prime western blotting system. […]

Caco-2 cells = test: Light microscopy of Caco-2 cells after treatment; assay type: cell-based, human; settings: 200 µM
Description: as §1
(§6) (B) Immunoblotting analysis of SIRT6 protein. SIRT6 protein levels (MW: 39 kDa) were normalized relative to α-tubulin (MW: 50 kDa) and quantification is represented as fold change respect to control. Values are expressed as mean ± SEM of four independent experiment (*p values < 0.05; one way-ANOVA). SIRT6 expression were determined by immunoblotting (B).
as §3

[2] = system: SIRT6 protein expression in Caco-2 cells; test: Immunoblotting of SIRT6 protein expression in Caco-2 cells; assay type: cell-based, human; settings: 24 h; for SIRT6 expression, in words: Caco-2 cells
Description: as §1, §6, §3, §4
Immunoblotting was performed according to standard protocols from four independent experiments. Briefly, protein samples (18 µg/sample) were separated by SDS-PAGE using 10–20% gradient gels and transferred onto PVDF membranes. Membranes were blocked in 3% non-fat dry milk and further incubated with primary rabbit anti- FoxO3α (1:2000), anti-GLUT1 (1:1000), anti-H3, anti-SIRT6 (1:2000), anti-Twist (1:2000) anti-α-tubulin (1:8000) antibodies overnight at +4 °C. HRP-conjugated secondary antibodies (goat anti-rabbit, goat anti-mouse) were incubated for 1 hour at room temperature and proteins were detected using ELC prime western blotting system. Densitometric analysis of protein bands was carried out using ImageJ 1.32 software and the data were normalized by α-tubulin (loading control).

GST-SIRT6 = target: T1, GST-SIRT6 (Homo sapiens, UniProt Q8N6T7); test: In vitro SIRT6 deacetylation of core histones, western blot of H3K9Ac; assay type: biochemical; settings: 100 µM
T1 construct: made in house; host or cells: E. coli BL21(DE3)-pRARE
Description: Western blot analysis was carried out as previously described, with slight modifications. […] The reaction was stopped with Laemmli (sample buffer) and separated by SDS-PAGE using 10–20% gradient gels and transferred onto polyvinylidene difluoride (PVDF) membranes. H3K9 acetylation was detected with rabbit anti-acetyl H3K9 antibody followed by anti-rabbit HRP-conjugated secondary antibody. Membranes were stripped and re-probed with rabbit anti-histone H3 antibody. Chemiluminescent signal detection and image acquisition were carried out using ECL prime western blotting detection reagents.
3 μg/well of a purified recombinant GST‐SIRT6 protein, 1.25 μg purified whole chicken core histones with 500 μM NAD+ in 25 mM Tris‐HCl, pH 8.0. Analysis were repeated three times and one representative cropped blot is shown (A). Uncropped blots probed with H3K9Ac (B), H3 (C). […]

GST-tagged SIRT6 = target: T2, GST-tagged SIRT6 (Homo sapiens, UniProt Q8N6T7); test: HPLC-based SIRT6 deacetylation assay with H3K9Ac peptide; assay type: biochemical;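 also: recombinant SIRT6 incubated 30 min at 37 °C with 500 µM NAD+ and H3K9Ac peptide, deacetylated H3K9 quantified by reversed-phase HPLC-MRM peak area versus DMSO control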
T2 construct: made in house; host or cells: E. coli BL21(DE3)-pRARE

[3] = system: GLUT1 protein expression in Caco-2 cells; test: Immunoblotting of GLUT1 protein expression in Caco-2 cells; assay type: cell-based, human; settings: Caco-2, 24 h, 100 µM
Description: as §1, §2, §3, §4, §5

[4] = system: FoxO3α protein expression in Caco-2 cells; test: Immunoblotting of FoxO3α protein expression in Caco-2 cells; assay type: cell-based, human; settings: Caco-2, 24 h, 50 and 100 µM
Description: as §1, §2, §3, §4, §5

T2 sequence (Q8N6T7 whole entry): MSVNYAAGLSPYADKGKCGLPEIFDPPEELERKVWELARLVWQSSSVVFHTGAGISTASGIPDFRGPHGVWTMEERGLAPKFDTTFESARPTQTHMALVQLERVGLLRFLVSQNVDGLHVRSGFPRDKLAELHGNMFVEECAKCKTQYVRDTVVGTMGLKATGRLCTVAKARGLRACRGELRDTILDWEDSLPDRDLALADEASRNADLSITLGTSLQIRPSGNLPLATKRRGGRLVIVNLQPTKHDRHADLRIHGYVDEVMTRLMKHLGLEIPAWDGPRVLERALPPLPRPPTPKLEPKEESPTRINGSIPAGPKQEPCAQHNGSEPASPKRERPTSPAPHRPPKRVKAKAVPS
T1 sequence (Q8N6T7 whole entry): as above

Oc1cc(O)c2cc(O)c(-c3ccc(O)c(O)c3)[o+]c2c1 [Compound 17, Cyanidin]
Twist1 expression, in words [1]: downregulated | Precipitation in cell culture medium (Caco-2 cells): precipitated out of solution | SIRT6 expression up-regulation ([2]; Caco-2, 50–100 µM, relative to control): 3.5 fold | SIRT6 expression, in words [2]: effective in a dose-dependent manner | SIRT6 expression, in words ([2]; listed as Cyanidin): significantly increased SIRT6 expression | Increase of deacetylation activity (H3K9Ac on core histones) (GST-SIRT6): ~2.5 fold | SIRT6 activation, in words (GST-tagged SIRT6): increase in deacetylase activity | Activation 100 µM (GST-tagged SIRT6; 100 µM compound, 40 µM H3K9Ac, mean ± SD, n=3, fold per Fig. 2C legend): 2.6 ± 0.1 fold | inhibition at 100 µM (GST-tagged SIRT6; 100 µM compound, mean ± SD, n=3): 0% | GLUT1 expression, in words [3]: downregulated | FoxO3α protein expression, in words [4]: enhanced the protein expression of FOXO3 significantly
